Reference: the supplement of paper PMC5844555

Legend:
Experiment in all cases: 3' UTR reporter interaction score (median-centred robust z-score of log2 firefly/Renilla activity); higher = less repression of the 3' UTR reporter
Conditions in all cases: HEK293T; 48 h
BRCA2 = tested on: BRCA2
Outline: (§1)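 Firefly and Renilla luciferase activities were read 48 h post-transfection in HEK293T cells (10,000/well, 96-well plates). The cells had received 100 ng firefly luc2P reporter bearing the gene's 3' UTR, 20 ng Renilla pRL-TK control and 2.5 pmol miRNA mimic via DharmaFECT Duo. The interaction score, where more negative means interaction, is a per-plate robust z-score (median, median absolute deviation) of the log firefly/Renilla ratio, median-centred per miRNA and averaged over at least two independent screens.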

EZH2 = tested on: EZH2
Outline: as §1

FBXW7 = tested on: FBXW7
Outline: as §1

HRAS = tested on: HRAS
Outline: as §1

MYB = tested on: MYB
Outline: as §1

MYCN = tested on: MYCN
Outline: as §1

MYC = tested on: MYC
Outline: as §1

MYT1L = tested on: MYT1L
Outline: as §1

NOTCH1 = tested on: NOTCH1
Outline: as §1

PHF6 = tested on: PHF6
Outline: as §1

PHOX2B = tested on: PHOX2B
Outline: as §1

RB1 = tested on: RB1
Outline: as §1

TP53 = tested on: TP53
Outline: as §1

ZEB2 = tested on: ZEB2
Outline: as §1

Sequence | 3' UTR reporter interaction score (BRCA2) | 3' UTR reporter interaction score (EZH2) | 3' UTR reporter interaction score (FBXW7) | 3' UTR reporter interaction score (HRAS) | 3' UTR reporter interaction score (MYB) | 3' UTR reporter interaction score (MYCN) | 3' UTR reporter interaction score (MYC) | 3' UTR reporter interaction score (MYT1L) | 3' UTR reporter interaction score (NOTCH1) | 3' UTR reporter interaction score (PHF6) | 3' UTR reporter interaction score (PHOX2B) | 3' UTR reporter interaction score (RB1) | 3' UTR reporter interaction score (TP53) | 3' UTR reporter interaction score (ZEB2)
CAGUGCAAUGUUAAAAGGGCAU | -0.00105 | -0.606 | 0.774 | -0.0408 | -1.89 | 1.42 | 0.265 | -0.334 | 0.727 | 0.0914 | 0.897 | 1.55 | -0.31 | -0.231
CAUAAAGUAGAAAGCACUAC | 0.352 | -0.0463 | -0.553 | -0.266 | -0.0675 | -0.0538 | 0.0993 | -0.385 | 0.3 | -0.673 | 0.845 | 0.941 | -0.122 | -0.00923
CAUCCCUUGCAUGGUGGAGGGU | -0.755 | 0.459 | -2.06 | -0.474 | 0.193 | 1.03 | 0.286 | -1.78 | 0.0724 | -0.203 | -0.0949 | -1.51 | 0.105 | -1.03
CAUCUGGAGGUAAGAAGCACUUU | 0.269 | 0.237 | 0.143 | 0.165 | -2.31 | -0.232 | -0.242 | -1.9 | -0.32 | 1.19 | -0.503 | 0.4 | -1.18 | 1.48
CAUCUUACCGGACAGUGCUGGA | 0.868 | 0.0963 | -0.296 | 0.319 | -1.55 | -0.576 | -0.0291 | -0.174 | 0.335 | 0.881 | 0.65 | -0.297 | -0.701 | -2.11
CAUGCCUUGAGUGUAGGACCGU | 0.421 | 0.42 | 0.998 | -0.893 | 0.293 | -0.364 | -1.17 | -1.07 | -0.883 | 1.76 | -1.4 | 0.637 | 0.524 | -1.59
CAUUGCACUUGUCUCGGUCUGA | 0.658 | 0.125 | -0.0954 | -0.416 | -0.142 | -0.0953 | 0.278 | 0.397 | -0.145 | -1.24 | -0.664 | 0.825 | -0.48 | -2.69
CCACACCGUAUCUGACACUUU | -0.654 | -0.643 | 0.287 | -0.828 | -0.254 | 0.101 | -1.37 | 0.0842 | -0.439 | 0.504 | 0.567 | 0.211 | 0.0153 | 1.51
CCACUGCCCCAGGUGCUGCUGG | -0.289 | -0.183 | -0.902 | -0.594 | 0 | 0.562 | 0.494 | 1.35 | -1.62 | 0.422 | 0.479 | 0.0205 | -1.28 | -1.03
CCCAGAUAAUGGCACUCUCAA | 0.00154 | 0.0427 | -0.29 | 0.111 | 0.409 | -0.998 | 0.82 | 0.0372 | -0.834 | -0.296 | 0.745 | -2.36 | -0.804 | 0.427
CCCAGUGUUCAGACUACCUGUUC | 0.218 | -0.25 | -0.85 | -0.0015 | 1.64 | 0.198 | 0.666 | 2.99 | 0.374 | 0.112 | -0.196 | -1.81 | -0.337 | -0.517
CCCAGUGUUUAGACUAUCUGUUC | 0.494 | -0.185 | -0.738 | -0.315 | 0.059 | 0.905 | 0.186 | 1.93 | -0.226 | 0.458 | -0.251 | -0.794 | -0.323 | 0.476
CCUCUAGAUGGAAGCACUGUCU | 1.43 | 0.875 | -0.485 | 0.49 | 1.05 | -0.452 | -0.352 | -0.377 | 0.00559 | 0.44 | -0.512 | 1.24 | -0.0691 | 0.763
CCUCUGGGCCCUUCCUCCAG | 1.66 | -0.302 | -0.553 | 0.196 | 0.205 | 0.2 | -0.307 | -1.13 | -0.555 | 1.9 | -0.825 | 0.604 | 1.37 | 0.525
CGAAUGUUGCUCGGUGAACCCCU | -0.821 | -0.254 | 0.304 | -0.194 | 0.287 | 0.119 | 0.217 | 0.642 | 1.32 | -1.07 | 1.32 | 0.281 | -0.241 | -0.941
CGCAUCCCCUAGGGCAUUGGUGU | 0.625 | 0.639 | -0.0954 | 1.06 | -0.38 | -0.239 | 0.19 | -3.16 | -1.34 | -0.956 | 0.221 | -0.799 | 0.263 | -0.392
CGGGUGGAUCACGAUGCAAUUU | 0.639 | -0.645 | 0.899 | -0.371 | -0.118 | 0.00745 | 0.166 | 0.0585 | 0.128 | -0.0241 | -0.988 | 0.702 | 0.809 | -1.87
CUAAUAGUAUCUACCACAAUAAA | 0.274 | 0.167 | 0.465 | -0.78 | 1.16 | 0.604 | -0.306 | -0.606 | 0.264 | -0.303 | 0.231 | -0.459 | -0.375 | 0.675
CUACAAAGGGAAGCACUUUCUC | -0.805 | 0.77 | -0.7 | -1.25 | 0.666 | -0.614 | 0.411 | 0.757 | 0.148 | 0.716 | 1.76 | 0.032 | -1.31 | -3.59
